Measurements: patent US20250222009A1, “DINUCLEAR GOLD(I) COMPLEXES FOR TREATING CANCER” (KING FAHD UNIVERSITY OF PETROLEUM AND MINERALS, priority 2024, published 2025)

Assays:
TrxR = assay: Thioredoxin reductase activity in treated cell lysates; type: cell-based, human; conditions: A549 cells treated 24 h
Experimental: Cells were treated with complex 3 (24 h) and then lysed in 50 mM Tris-HCl pH 7.6, 0.1% Triton X-100, 0.9% NaCl to obtain the TrxR activity. TrxR (EC 1.8.1.9) was assayed using the Thioredoxin Reductase Assay Kit (Sigma-Aldrich). Enzyme activity was determined by reading the absorbance at 412 nm using a spectrophotometer (Biomate 3 Thermo Spectronic, Thermo Electronic Corporation, Monza, Italy) and normalized to the protein concentration, determined with the Bio-Rad protein assay (Protein Assay Dye Reagent Concentrate, Bio-Rad Laboratories, Segrate, Italy).

BAX = BAX expression, flow cytometry; type: cell-based, human; conditions: A549, 72 h
Experimental: (§1) 2.0×10^5 A549 cells were seeded in 6-well plates in a complete medium and treated with the complex 3. Assay results were detected by flow cytometry on a BD FACSCanto II flow cytometer. Data were analyzed using BD FACSDiva v.8.0.1 software (BD Biosciences) unless otherwise indicated. Tumor cells were treated for 72 h with complex 3, then stained for 15 minutes with FITC Annexin-V (Thermo Fisher Scientific) and 7AAD (BD Pharmingen, Milan, Italy). Activated caspase-3,7 was detected using the CaspaTag Caspase-3,7 assay (Merck Millipore) after an incubation of 24 h with complex 3. For B-cell lymphoma/leukemia-2 protein (Bcl-2) and Bcl-2 associated x protein (Bax) analysis, cells were treated for 72 h with C3, then fixed and permeabilized (FIX & PERM Cell Fixation & Cell Permeabilization Kit, Life Technologies). […] The distribution of cells in different cell cycle phases was quantified using ModFit LT 4.0 software (Verity Software House, Topsham, ME, USA) (See: Sulaiman, A. A. A.; Casagrande, N.; Borghese, C.; Corona, G.; Isab, A. A.; Ahmad, S.; Aldinucci, D.; Altaf M. Design, Synthesis, and Preclinical Activity in Ovarian Cancer Models of New Phosphanegold(I)—N-Heterocyclic Carbene Complexes. J Med Chem 2022, 65, 14424-14440, which is incorporated herein by reference in its entirety). […]

A549 cells [1] = assay: Crystal violet staining cell viability; type: cell-based, human; conditions: A549, 72 h
Experimental: 2.5×10^3 (PC3, MG63, MCF7) or 4.0×10^3 (A2780, A2780cis, A549) cells were seeded in 96-well microplates in 100 μL culture medium. Cells, allowed to adhere for 24 h, were then treated in triplicate with increasing concentrations of gold compounds. Cisplatin was included as a reference drug. Cell viability was evaluated using 3-(4,5-dimethylthiazol-2-yl)-2,5-diphenyltetrazolium bromide (MTT) assay (Sigma-Aldrich) after 72 h of treatment. Half maximal inhibitory concentrations (IC50), IC25, and IC75 were calculated using the CalcuSyn software version 2 (Biosoft, Ferguson, MO, USA) (See: Chou, T. C.; Talalay, P. Quantitative Analysis of Dose-Effect Relationships: The Combined Effects of Multiple Drugs or Enzyme Inhibitors. Adv. Enzyme Regul. 1984, 22, 27-55, which is incorporated herein by reference in its entirety). Fold resistance was calculated as the ratio of the IC50 of the A2780cis to that of the parental cell line A2780. Alternatively, cell viability was assayed by crystal violet staining (See: Feoktistova, M.; Geserick, P.; Leverkus, M. Crystal Violet Assay for Determining Viability of Cultured Cells. Cold Spring Harb Protoc 2016, 2016, pdb.prot087379, which is incorporated herein by reference in its entirety). […]

A549 cells [2] = assay: Annexin-V-FITC/7AAD apoptosis, flow cytometry; type: cell-based, human; conditions: A549, 72 h, 0.06-0.60 μM
Experimental: as §1

NOTCH1 = NOTCH1 surface expression, flow cytometry; type: cell-based, human; conditions: A549, 24 h
Experimental: as §1

[3] = system: A2780 ovarian cancer cells; assay: MTT cytotoxicity assay, A2780; type: cell-based, human; conditions: 72 h, mean (SD)
Experimental: (§2) The human epithelial ovarian cancer A2780 cell line and its cisplatin-resistant clone A2780cis were obtained from Sigma-Aldrich (Milano, Italy). A2780cis cells were continuously exposed to 1 μM cisplatin to maintain cisplatin resistance. A549 cells (Human non-small cell lung cancer), MCF7 (metastatic breast cancer), PC3 (highly aggressive metastatic prostate cancer), and MG63 (osteosarcoma) were obtained from the American Type Culture Collection (ATCC). Cells were authenticated in laboratory using the PowerPlex 16 HS System. A2780, A2780cis, and PC3 cells were cultured in RPMI-1640 medium; MG63 and MCF7 cells were cultured in DMEM, and A549 cells were cultured in F12 NUT-MIX. The culture medium contained about 10% fetal bovine serum (FBS) (Gibco, Thermo Fisher Scientific, Monza, Italy), about 1% (v/v) of penicillin (10,000 units/mL)-streptomycin (10 mg/mL), and about 1% (v/v) L-glutamine (200 mM) (all from Sigma-Aldrich). Cells were cultured at 37° C. in a 5% CO2, fully humidified atmosphere.
(§3) 2.5×10^3 (PC3, MG63, MCF7) or 4.0×10^3 (A2780, A2780cis, A549) cells were seeded in 96-well microplates in 100 μL culture medium. Cells, allowed to adhere for 24 h, were then treated in triplicate with increasing concentrations of gold compounds. Cisplatin was included as a reference drug. Cell viability was evaluated using 3-(4,5-dimethylthiazol-2-yl)-2,5-diphenyltetrazolium bromide (MTT) assay (Sigma-Aldrich) after 72 h of treatment. Half maximal inhibitory concentrations (IC50), IC25, and IC75 were calculated using the CalcuSyn software version 2 (Biosoft, Ferguson, MO, USA) (See: Chou, T. C.; Talalay, P. Quantitative Analysis of Dose-Effect Relationships: The Combined Effects of Multiple Drugs or Enzyme Inhibitors. Adv. Enzyme Regul. 1984, 22, 27-55, which is incorporated herein by reference in its entirety). Fold resistance was calculated as the ratio of the IC50 of the A2780cis to that of the parental cell line A2780. Alternatively, cell viability was assayed by crystal violet staining (See: Feoktistova, M.; Geserick, P.; Leverkus, M. Crystal Violet Assay for Determining Viability of Cultured Cells. Cold Spring Harb Protoc 2016, 2016, pdb.prot087379, which is incorporated herein by reference in its entirety). Alternatively, after drug treatment, the culture Medium was removed, cells washed, fixed, and stained, and the Crystal Violet solution lasted 20 minutes (See: Sulaiman, A. A. A.; Casagrande, N.; Borghese, C.; Corona, G.; Isab, A. A.; Ahmad, S.; Aldinucci, D.; Altaf M. Design, Synthesis, and Preclinical Activity in Ovarian Cancer Models of New Phosphanegold(I)—N-Heterocyclic Carbene Complexes. J Med Chem 2022, 65, 14424-14440, which is incorporated herein by reference in its entirety).

MCF-7 (breast cancer) = assay: MTT cytotoxicity assay, MCF-7; type: cell-based; conditions: 72 h, mean, SD in next cell
Experimental: as §2, §3

CC(C)c1cccc(C(C)C)c1-n1ccn(-c2c(C(C)C)cccc2C(C)C)[c]1=[Au-][P+](CCNCC[P+]([Au-]=[c]1n(-c2c(C(C)C)cccc2C(C)C)ccn1-c1c(C(C)C)cccc1C(C)C)(C1CCCCC1)C1CCCCC1)(C1CCCCC1)C1CCCCC1 [Complex 3, [(Au(IPr))2(C28H24P2)](PF6)2]
TrxR enzymatic activity (TrxR): not modified | pro-apoptotic BAX expression (BAX): induced | growth inhibition by crystal violet staining (A549 cells [1]): growth inhibition | percentage of Annexin-V-positive cells (early apoptosis) (A549 cells [2]): increased in a dose-dependent manner | percentage of double stained Annexin-V/7AAD-positive cells (late apoptosis) (A549 cells [2]): increased in a dose-dependent manner | NOTCH1 expression (NOTCH1): decreased in a dose-dependent manner | IC50 [3]: 110 nM | IC50 (MCF-7 (breast cancer)): 430 nM
